Measured values taken from the CheMixHub viscosity set.
“And” between values parts separate entries of the source, which are not always exact repeats. Equal entries are not always repeated.

Assay: xn = mol fraction of the nth substance listed
Conditions: 101.3 kPa

O=[N+]([O-])c1ccccc1 + CCCCC
Conditions	viscosity
293.15 K, x1 = 0.0998	0.272 mPa·s
293.15 K, x1 = 0.1994	0.336 mPa·s
293.15 K, x1 = 0.5984	0.79 mPa·s
293.15 K, x1 = 0.6995	0.972 mPa·s
293.15 K, x1 = 0.7997	1.221 mPa·s
293.15 K, x1 = 0.9	1.549 mPa·s
297.15 K, x1 = 0.0998	0.262 mPa·s
297.15 K, x1 = 0.1994	0.322 mPa·s
297.15 K, x1 = 0.299	0.42 mPa·s
297.15 K, x1 = 0.3491	0.52 mPa·s
297.15 K, x1 = 0.399	0.596 mPa·s
297.15 K, x1 = 0.4589	0.603 mPa·s
297.15 K, x1 = 0.494	0.623 mPa·s
297.15 K, x1 = 0.5984	0.748 mPa·s
297.15 K, x1 = 0.6995	0.921 mPa·s
297.15 K, x1 = 0.7997	1.15 mPa·s
297.15 K, x1 = 0.9	1.452 mPa·s
297.16 K, x1 = 0.383	0.62 mPa·s
297.17 K, x1 = 0.299	0.42 mPa·s
297.17 K, x1 = 0.3491	0.517 mPa·s
297.17 K, x1 = 0.383	0.619 mPa·s and 0.617 mPa·s and 0.61 mPa·s
297.17 K, x1 = 0.3832	0.614 mPa·s
297.17 K, x1 = 0.399	0.591 mPa·s
297.17 K, x1 = 0.4589	0.602 mPa·s
297.17 K, x1 = 0.494	0.623 mPa·s
297.18 K, x1 = 0.383	0.604 mPa·s
297.2 K, x1 = 0.383	0.593 mPa·s
297.23 K, x1 = 0.383	0.583 mPa·s
297.29 K, x1 = 0.383	0.565 mPa·s
297.34 K, x1 = 0.383	0.558 mPa·s
297.44 K, x1 = 0.383	0.546 mPa·s
297.6 K, x1 = 0.383	0.535 mPa·s
297.65 K, x1 = 0.0998	0.261 mPa·s
297.65 K, x1 = 0.1994	0.321 mPa·s
297.65 K, x1 = 0.299	0.415 mPa·s
297.65 K, x1 = 0.3491	0.488 mPa·s
297.65 K, x1 = 0.3832	0.532 mPa·s
297.65 K, x1 = 0.399	0.55 mPa·s
297.65 K, x1 = 0.4589	0.592 mPa·s
297.65 K, x1 = 0.494	0.616 mPa·s
297.65 K, x1 = 0.5984	0.743 mPa·s
297.65 K, x1 = 0.6995	0.915 mPa·s
297.65 K, x1 = 0.7997	1.142 mPa·s
297.65 K, x1 = 0.9	1.441 mPa·s
298 K, x1 = 0.383	0.52 mPa·s
298.15 K, x1 = 0.0998	0.26 mPa·s
298.15 K, x1 = 0.1994	0.319 mPa·s
298.15 K, x1 = 0.299	0.411 mPa·s
298.15 K, x1 = 0.3491	0.476 mPa·s
298.15 K, x1 = 0.3832	0.515 mPa·s
298.15 K, x1 = 0.399	0.536 mPa·s
298.15 K, x1 = 0.4589	0.584 mPa·s
298.15 K, x1 = 0.494	0.61 mPa·s
298.15 K, x1 = 0.5984	0.738 mPa·s
298.15 K, x1 = 0.6995	0.909 mPa·s
298.15 K, x1 = 0.7997	1.134 mPa·s
298.15 K, x1 = 0.9	1.43 mPa·s
298.76 K, x1 = 0.383	0.504 mPa·s
299.15 K, x1 = 0.0998	0.257 mPa·s
299.15 K, x1 = 0.1994	0.316 mPa·s
299.15 K, x1 = 0.299	0.404 mPa·s
299.15 K, x1 = 0.3491	0.461 mPa·s
299.15 K, x1 = 0.3832	0.498 mPa·s
299.15 K, x1 = 0.399	0.518 mPa·s
299.15 K, x1 = 0.4589	0.571 mPa·s
299.15 K, x1 = 0.494	0.6 mPa·s
299.15 K, x1 = 0.5984	0.729 mPa·s
299.15 K, x1 = 0.6995	0.897 mPa·s
299.15 K, x1 = 0.7997	1.118 mPa·s
299.15 K, x1 = 0.9	1.406 mPa·s
299.88 K, x1 = 0.383	0.489 mPa·s
302.28 K, x1 = 0.383	0.466 mPa·s
305.15 K, x1 = 0.0998	0.245 mPa·s
305.15 K, x1 = 0.1994	0.298 mPa·s
305.15 K, x1 = 0.299	0.373 mPa·s
305.15 K, x1 = 0.3491	0.417 mPa·s
305.15 K, x1 = 0.3832	0.447 mPa·s
305.15 K, x1 = 0.399	0.466 mPa·s
305.15 K, x1 = 0.4589	0.52 mPa·s
305.15 K, x1 = 0.494	0.551 mPa·s
305.15 K, x1 = 0.5984	0.677 mPa·s
305.15 K, x1 = 0.6995	0.831 mPa·s
305.15 K, x1 = 0.7997	1.031 mPa·s
305.15 K, x1 = 0.9	1.284 mPa·s
305.99 K, x1 = 0.383	0.442 mPa·s
313.15 K, x1 = 0.0998	0.229 mPa·s
313.15 K, x1 = 0.1994	0.277 mPa·s
313.15 K, x1 = 0.299	0.342 mPa·s
313.15 K, x1 = 0.3491	0.38 mPa·s
313.15 K, x1 = 0.3832	0.403 mPa·s
313.15 K, x1 = 0.399	0.424 mPa·s
313.15 K, x1 = 0.4589	0.471 mPa·s
313.15 K, x1 = 0.494	0.503 mPa·s
313.15 K, x1 = 0.5984	0.616 mPa·s
313.15 K, x1 = 0.6995	0.753 mPa·s
313.15 K, x1 = 0.7997	0.929 mPa·s
313.15 K, x1 = 0.9	1.143 mPa·s
